Assay results taken from patent EP4707280A1, “1,4-CINEOLE DERIVATIVE AND INTERMEDIATE THEREOF, HERBICIDE CONTAINING SAID DERIVATIVE AS ACTIVE INGREDIENT, METHOD FOR USING HERBICIDE, AND METHOD FOR PREPARING AGROCHEMICAL COMPOSITION” (HOKKO CHEMICAL INDUSTRY CO., LTD., priority 2023, dated 2024).

What was measured:
Assay type in all cases: in vivo
Scirpus juncoides [1] = test: Test Example 2: herbicidal effect test by application during growth period of paddy rice; details: Schoenoplectiella juncoides; 120 g per 10 ares; applied seven days after sowing, flooded pots; 14 days after application; read-out: weed inhibition rate
Summary of the method: (§1)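 Paddy soil in flooded pots (water depth about 3 cm) was sown with weed seeds and kept in a glass greenhouse. Seven days after sowing, a diluted emulsifiable concentrate was applied by dropper at 120 g active ingredient per 10 ares. Weed inhibition was evaluated 14 days after application, in duplicate.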

[2] = test system: Echinochloa crus-galli var. formosensis; test: as above; details: Echinochloa crus-galli; 120 g per 10 ares; applied seven days after sowing, flooded pots; 14 days after application; read-out: weed inhibition rate
Summary of the method: as §1

Echinochloa crus-galli [3] = test: Test Example 3: herbicidal effect test by soil application in upland field; details: Echinochloa crus-galli, 120 g per 10 ares, sprayed one day after sowing, 14 days after application, read-out: weed inhibition rate
Summary of the method: (§2)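 Pre-emergence test: seeds mixed into top 1 cm of alluvial loam upland soil in pots; emulsifiable concentrate diluted in water sprayed on soil one day after sowing at 100 L/10 a, 120 g a.i./10 a. Weed inhibition rate (%) scored at 14 days, in duplicate.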

Digitaria ciliaris [4] = test: as above; details: Digitaria ciliaris, 120 g per 10 ares, sprayed one day after sowing, 14 days after application, read-out: weed inhibition rate
Summary of the method: as §2

Echinochloa crus-galli [5] = test: Test Example 4: herbicidal effect test by stem and leaf treatment in upland field; details: Echinochloa crus-galli; 120 g per 10 ares; sprayed seven days after sowing, upland soil; 14 days after application; read-out: weed inhibition rate
Scirpus juncoides [6] = test: Test Example 1: herbicidal effect test by soil application in paddy rice; details: Schoenoplectiella juncoides, soil, 336 h; 120 g active ingredient per 10 ares; applied immediately after sowing, flooded pots; 14 days after application; read-out: weed inhibition rate
Summary of the method: (§3)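 Paddy soil in Wagner pots (1/10,000 acre), fertilized and puddled; 30 seeds per species sown at 0–1 cm, flooded to ~3 cm, greenhouse. Water-diluted emulsifiable concentrate dropped onto flooded pots right after sowing at 120 g active ingredient per 10 ares.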

[7] = test system: Echinochloa crus-galli var. formosensis; test: as above; details: Echinochloa crus-galli, soil, 336 h; 120 g active ingredient per 10 ares; applied immediately after sowing, flooded pots; 14 days after application; read-out: weed inhibition rate
Summary of the method: as §3

Digitaria ciliaris [8] = test: Test Example 4: herbicidal effect test by stem and leaf treatment in upland field; details: Digitaria ciliaris; 120 g per 10 ares; sprayed seven days after sowing, upland soil; 14 days after application; read-out: weed inhibition rate

CC(C)[C@]12C=C[C@](C)(O1)[C@H](OCc1c(Cl)cccc1Cl)C2 [3-732, (1R,4S,5R)-5-[(2,6-dichlorophenyl)methoxy]-4-methyl-1-isopropyl-7-oxabicyclo[2.2.1]hept-2-ene]
≥ 80%: inhibition at 1200 g/ha (Scirpus juncoides [1]) | inhibition at 1200 g/ha [2] | inhibition at 1200 g/ha (Echinochloa crus-galli [3]) | inhibition at 1200 g/ha (Digitaria ciliaris [4]) | inhibition at 1200 g/ha (Echinochloa crus-galli [5]) | pest or weed control at 1200 g/ha (Scirpus juncoides [6]) | pest or weed control at 1200 g/ha [7] | inhibition at 1200 g/ha (Digitaria ciliaris [8])

Cc1ccccc1CO[C@H]1C[C@]2(C(C)C)C=C[C@@]1(C)O2 [3-749, (1S,4R,5S)-4-methyl-5-[(2-methylphenyl)methoxy]-1-isopropyl-7-oxabicyclo[2.2.1]hept-2-ene]
≥ 80%: inhibition at 1200 g/ha (Scirpus juncoides [1]) | inhibition at 1200 g/ha [2] | inhibition at 1200 g/ha (Echinochloa crus-galli [3]) | inhibition at 1200 g/ha (Digitaria ciliaris [4]) | inhibition at 1200 g/ha (Echinochloa crus-galli [5]) | pest or weed control at 1200 g/ha (Scirpus juncoides [6]) | pest or weed control at 1200 g/ha [7] | inhibition at 1200 g/ha (Digitaria ciliaris [8])

CC(C)C12CC(OCc3ccccc3C(F)(F)F)C(C)(CC1Cl)O2 (centres unmarked) [1-1301, 5-chloro-1-methyl-4-isopropyl-2-[[2-(trifluoromethyl)phenyl]methoxy]-7-oxabicyclo[2.2.1]heptane]
≥ 80%: inhibition at 1200 g/ha (Scirpus juncoides [1]) | inhibition at 1200 g/ha [2] | pest or weed control at 1200 g/ha (Scirpus juncoides [6]) | pest or weed control at 1200 g/ha [7]

CC(C)[C@]12C[C@@H](OCc3ccccc3C(F)(F)F)[C@](C)(C[C@@H]1Cl)O2 [1-640, (1R,2S,4S,5R)-2-chloro-1-isopropyl-4-methyl-5-[[2-(trifluoromethyl)phenyl]methoxy]-7-oxabicyclo[2.2.1]heptane]
≥ 80%: inhibition at 1200 g/ha (Scirpus juncoides [1]) | inhibition at 1200 g/ha [2] | pest or weed control at 1200 g/ha (Scirpus juncoides [6]) | pest or weed control at 1200 g/ha [7]

Cc1noc(C)c1COC1CC2(C(C)C)OC1(C)CC2Cl (centres unmarked) [1-1325, 4-[(5-chloro-4-isopropyl-1-methyl-7-oxabicyclo[2.2.1]heptan-2-yl)oxymethyl]-3,5-dimethyl-isoxazole]
≥ 80%: inhibition at 1200 g/ha (Scirpus juncoides [1]) | inhibition at 1200 g/ha [2] | pest or weed control at 1200 g/ha (Scirpus juncoides [6]) | pest or weed control at 1200 g/ha [7]

CC(C)[C@]12CC(OCc3ccccc3OC(F)(F)F)[C@](C)(C[C@@H]1Cl)O2 (mixture of isomers) [1-627, (1R,2S,4S,SR)-2-chloro-1-isopropyl-4-methyl-5-[[2-(trifluoromethoxy)phenyl]methoxy]-7-oxabicyclo[2.2.1]heptane]
≥ 80%: inhibition at 1200 g/ha (Scirpus juncoides [1]) | inhibition at 1200 g/ha [2] | pest or weed control at 1200 g/ha (Scirpus juncoides [6]) | pest or weed control at 1200 g/ha [7]

Cc1noc(C)c1CO[C@@H]1C[C@]2(C(C)C)O[C@@]1(C)C[C@@H]2I [1-790, 4-[[(1S,2R,4R,5S)-5-iodo-4-isopropyl-1-methyl-7-oxabicyclo [2.2.1]heptane-2-yl]oxymethyl]-3,5-dimethyl-isoxazole]
≥ 80%: inhibition at 1200 g/ha (Scirpus juncoides [1]) | inhibition at 1200 g/ha [2] | pest or weed control at 1200 g/ha (Scirpus juncoides [6]) | pest or weed control at 1200 g/ha [7]

CC(C)[C@]12C[C@@H](OCc3ccccc3OC(F)(F)F)[C@](C)(C[C@@H]1I)O2 [1-750, (1R,2S,4S,5R)-2-iodo-1-isopropyl-4-methyl-5-[[2-(trifluoromethoxy)phenyl]methoxy]-7-oxabicyclo[2.2.1]heptane]
≥ 80%: inhibition at 1200 g/ha (Scirpus juncoides [1]) | inhibition at 1200 g/ha [2] | pest or weed control at 1200 g/ha (Scirpus juncoides [6]) | pest or weed control at 1200 g/ha [7]

CC(C)C12CC(OCc3ccsc3)C(C)(CC1Br)O2 (centres unmarked) [1-1390, 5-bromo-1-methyl-4-isopropyl-2-(thiophen-3-ylmethoxy)-7-oxabicyclo[2.2.1]heptane]
≥ 80%: inhibition at 1200 g/ha (Scirpus juncoides [1]) | inhibition at 1200 g/ha [2] | inhibition at 1200 g/ha (Echinochloa crus-galli [3]) | inhibition at 1200 g/ha (Digitaria ciliaris [4]) | inhibition at 1200 g/ha (Echinochloa crus-galli [5]) | pest or weed control at 1200 g/ha (Scirpus juncoides [6]) | pest or weed control at 1200 g/ha [7] | inhibition at 1200 g/ha (Digitaria ciliaris [8])

CC(C)[C@]12C[C@@H](OCc3ccccc3C(F)(F)F)[C@](C)(C[C@@H]1I)O2 [1-765, (1R,2S,4S,5R)-2-iodo-1-isopropyl-4-methyl-5-[[2-(trifluoromethyl)phenyl]methoxy]-7-oxabicyclo[2.2.1]heptane]
≥ 80%: inhibition at 1200 g/ha (Scirpus juncoides [1]) | inhibition at 1200 g/ha [2] | pest or weed control at 1200 g/ha (Scirpus juncoides [6]) | pest or weed control at 1200 g/ha [7]

COC(=O)c1ccccc1COC1CC2(C(C)C)OC1(C)CC2Cl (centres unmarked) [1-1310, methyl 2-[(5-chloro-4-isopropyl-1-methyl-7-oxabicyclo[2.2.1]heptan-2-yl)oxymethyl]benzoate]
≥ 80%: inhibition at 1200 g/ha (Scirpus juncoides [1]) | pest or weed control at 1200 g/ha (Scirpus juncoides [6])

COC(=O)c1ccccc1COC1CC2(C(C)C)OC1(C)CC2I (centres unmarked) [1-1442, methyl 2-[(5-iodo-4-isopropyl-1-methyl-7-oxabicyclo[2.2.1]heptan-2-yl)oxymethyl]benzoate]
≥ 80%: inhibition at 1200 g/ha (Scirpus juncoides [1]) | pest or weed control at 1200 g/ha (Scirpus juncoides [6])

CC(C)C12CC(OCc3cccnc3)C(C)(CC1Cl)O2 (centres unmarked) [1-1321, 3-[(5-chloro-4-isopropyl-1-methyl-7-oxabicyclo[2.2.1]heptan-2-yl)oxymethyl]pyridine]
≥ 80%: inhibition at 1200 g/ha (Scirpus juncoides [1]) | pest or weed control at 1200 g/ha (Scirpus juncoides [6])

CC(C)C12CC(OCc3ccccc3OC(F)(F)F)C(C)(CC1I)O2 (centres unmarked) [1-1418, 2-iodo-1-isopropyl-4-methyl-5-[[2-(trifluoromethoxy)phenyl]methoxy]-7-oxabicyclo[2.2.1]heptane]
≥ 80%: inhibition at 1200 g/ha (Scirpus juncoides [1]) | inhibition at 1200 g/ha [2] | pest or weed control at 1200 g/ha (Scirpus juncoides [6]) | pest or weed control at 1200 g/ha [7]

CC(C)C12CC(OCc3ccncc3)C(C)(CC1Cl)O2 (centres unmarked) [1-1322, 4-[(5-chloro-4-isopropyl-1-methyl-7-oxabicyclo[2.2.1]heptan-2-yl)oxymethyl]pyridine]
≥ 80%: inhibition at 1200 g/ha (Scirpus juncoides [1]) | pest or weed control at 1200 g/ha (Scirpus juncoides [6])

Cc1noc(C)c1CO[C@@H]1C[C@]2(C(C)C)O[C@@]1(C)C[C@@H]2Cl [1-663, 4-[[(1S,2R,4R,5S)-5-chloro-4-isopropyl-1-methyl-7-oxabicyclo[2.2.1]heptan-2-yl]oxymethyl]-3,5-dimethyl-isoxazole]
≥ 80%: inhibition at 1200 g/ha (Scirpus juncoides [1]) | inhibition at 1200 g/ha [2] | pest or weed control at 1200 g/ha (Scirpus juncoides [6]) | pest or weed control at 1200 g/ha [7]

CC(C)C12CC(OCc3ccccc3C(F)(F)F)C(C)(CC1I)O2 (centres unmarked) [1-1433, 2-iodo-1-isopropyl-4-methyl-5-[[2-(trifluoromethyl)phenyl]methoxy]-7-oxabicyclo[2.2.1]heptane]
≥ 80%: inhibition at 1200 g/ha (Scirpus juncoides [1]) | inhibition at 1200 g/ha [2] | pest or weed control at 1200 g/ha (Scirpus juncoides [6]) | pest or weed control at 1200 g/ha [7]

CC(C)[C@]12C[C@@H](OCc3cccnc3)[C@](C)(C[C@@H]1I)O2 [1-786, 3-[[(1S,2R,4R,5S)-5-iodo-4-isopropyl-1-methyl-7-oxabicyclo[2.2.1]heptan-2-yl]oxymethyl]pyridine]
≥ 80%: inhibition at 1200 g/ha (Scirpus juncoides [1]) | pest or weed control at 1200 g/ha (Scirpus juncoides [6])
